Experiments:
KRAS G12C = KRAS G12C (Homo sapiens, UniProt P01116, G12C); assay: GDP-GTP exchange assay (KRAS_G12C exchange); format: biochemical; settings: bodipy-GDP loaded KRAS G12C 2.5 nM, SOS1 150 nM, GppNHp; 2 hours pre-incubation, 2 hours reaction; read-out: G12C_exchange
How it was run: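 Fluorescence exchange of bodipy-GDP for GppNHp, SOS1-driven, read at 485/520 nm; IC50 from four-parameter variable-slope fit. Both mutants used 2.5 nM final labelled protein and a 2 h compound pre-incubation. G12C reaction had 500 uM GppNHp and 150 nM SOS1 for 2 h; G12D ran 4 h.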

[1] = system: MIA PaCa-2 (KRAS G12C) cells; assay: Cellular pERK HTRF assay (KRAS_G12C pERK); format: cell-based, human; settings: Homo sapiens, MIA PaCa-2, 4 hours incubation, read-out: G12C_pERK
How it was run: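 Phospho-ERK1/2 HTRF readout (665 and 620 nm) in lysed MIA PaCa-2 cells, antibodies incubated overnight at room temperature. Cells seeded the day before and treated with G12C compounds for 4 h at 37 °C; IC50 fitted to percent inhibition against log inhibitor concentration.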

KRAS G12C, sequence (P01116 1-188 isoform P01116-2 G12C): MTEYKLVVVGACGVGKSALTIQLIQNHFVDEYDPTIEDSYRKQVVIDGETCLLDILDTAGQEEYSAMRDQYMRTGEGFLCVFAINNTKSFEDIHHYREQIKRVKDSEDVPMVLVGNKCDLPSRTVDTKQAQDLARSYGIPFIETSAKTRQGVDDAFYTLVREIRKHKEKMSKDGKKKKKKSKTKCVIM

SMILES	IC50 (KRAS G12C) [nM]	IC50 [1] [nM]
C=CC(=O)N1CC[C@H](n2cnc3c(N4CC(N(C)C)C4)nc4c(F)c(-c5cccc6cccc(Cl)c56)c(Cl)cc4c32)C[C@H]1CC#N [Example 265, 2-((2S,4S)-1-acryloyl-4-(8-chloro-7-(8-chloronaphthalen-1-yl)-4-(3-(dimethylamino)azetidin-1-yl)-6-fluoro-1H-imidazo[4,5-c]quinolin-1-yl)piperidin-2-yl)acetonitrile]	≤ 100	≤ 100
C=CC(=O)N1CC[C@H](n2cnc3c(N4CC(N(C)C)C4)nc4c(F)c(-c5c(C)c(F)cc6[nH]ncc56)c(Cl)cc4c32)C[C@H]1CC#N [Example 266a, 2-((2S,4S)-1-acryloyl-4-(8-chloro-4-(3-(dimethylamino)azetidin-1-yl)-6-fluoro-7-(6-fluoro-5-methyl-1H-indazol-4-yl)-1H-imidazo[4,5-c]quinolin-1-yl)piperidin-2-yl)acetonitrile]	≤ 100	≤ 100
C=CC(=O)N1CC[C@H](n2cnc3c(N4CC(N(C)C)C4)nc4c(F)c(-c5cnc(C)c6ccccc56)c(Cl)cc4c32)C[C@H]1CC#N [Example 268a, 2-((2S,4S)-1-acryloyl-4-(8-chloro-4-(3-(dimethylamino)azetidin-1-yl)-6-fluoro-7-(1-methylisoquinolin-4-yl)-1H-imidazo[4,5-c]quinolin-1-yl)piperidin-2-yl)acetonitrile]	≤ 100	≤ 100
C=CC(=O)N1CC[C@H](n2cnc3c(N4CC(N(C)C)C4)nc4c(F)c(-c5c(C)ncc6ccccc56)c(Cl)cc4c32)C[C@H]1CC#N [Example 269a, 2-((2S,4S)-1-acryloyl-4-(8-chloro-4-(3-(dimethylamino)azetidin-1-yl)-6-fluoro-7-(3-methylisoquinolin-4-yl)-1H-imidazo[4,5-c]quinolin-1-yl)piperidin-2-yl)acetonitrile]	≤ 100	≤ 100
C=CC(=O)N1CC[C@H](n2nnc3c(N4CC(N(C)C)C4)nc4c(Cl)c(-c5cccc(Cl)c5C)c(Cl)cc4c32)C[C@H]1CC#N [Example 273, 2-((2S,4S)-1-acryloyl-4-(6,8-dichloro-7-(3-chloro-2-methylphenyl)-4-(3-(dimethylamino)azetidin-1-yl)-1H-[1,2,3]triazolo[4,5-c]quinolin-1-yl)piperidin-2-yl)acetonitrile]	≤ 100	≤ 100
CC#CC(=O)N1CC[C@H](n2nnc3c(N4CC(N(C)C)C4)nc4c(Cl)c(-c5ccc(F)c6cccnc56)c(Cl)cc4c32)C[C@H]1CC#N [Example 274a, 2-((2S,4S)-1-(but-2-ynoyl)-4-(6,8-dichloro-4-(3-(dimethylamino)azetidin-1-yl)-7-(5-fluoroquinolin-8-yl)-1H-[1,2,3]triazolo[4,5-c]quinolin-1-yl)piperidin-2-yl)acetonitrile]	≤ 100	≤ 100
CC#CC(=O)N1CC[C@H](n2nnc3c(OC[C@@H]4CCCN4C)nc4c(Cl)c(-c5cccc(Cl)c5Cl)c(Cl)cc4c32)C[C@H]1CC#N [Example 278, 2-((2S,4S)-1-(but-2-ynoyl)-4-(6,8-dichloro-7-(2,3-dichlorophenyl)-4-(((S)-1-methylpyrrolidin-2-yl)methoxy)-1H-[1,2,3]triazolo[4,5-c]quinolin-1-yl)piperidin-2-yl)acetonitrile]	≤ 100	≤ 100
C=CC(=O)N1CC[C@H](n2nnc3c(N4CC(N(C)C)C4)nc4c(Cl)c(-c5cccc(Cl)c5Cl)c(Cl)cc4c32)C[C@H]1CC#N [Example 281, 2-((2S,4S)-1-acryloyl-4-(6,8-dichloro-7-(2,3-dichlorophenyl)-4-(3-(dimethylamino)azetidin-1-yl)-1H-[1,2,3]triazolo[4,5-c]quinolin-1-yl)piperidin-2-yl)acetonitrile]	≤ 100	≤ 100
C=CC(=O)N1CC[C@H](n2nnc3c(N4CC(N(C)C)C4)nc4c(Cl)c(-c5cccc(C)c5Cl)c(Cl)cc4c32)C[C@H]1CC#N [Example 282, 2-((2S,4S)-1-acryloyl-4-(6,8-dichloro-7-(2-chloro-3-methylphenyl)-4-(3-(dimethylamino)azetidin-1-yl)-1H-[1,2,3]triazolo[4,5-c]quinolin-1-yl)piperidin-2-yl)acetonitrile]	≤ 100	≤ 100
C=CC(=O)N1CC[C@H](n2nnc3c(OC[C@@H]4CCCN4C)nc4c(Cl)c(-c5cccc(Cl)c5Cl)c(Cl)cc4c32)C[C@H]1CC#N [Example 285, 2-((2S,4S)-1-acryloyl-4-(6,8-dichloro-7-(2,3-dichlorophenyl)-4-(((S)-1-methylpyrrolidin-2-yl)methoxy)-1H-[1,2,3]triazolo[4,5-c]quinolin-1-yl)piperidin-2-yl)acetonitrile]	≤ 100	≤ 100
C=CC(=O)N1CC[C@H](n2nnc3c(OC[C@@H]4CCCN4C)nc4c(Cl)c(-c5cccc(C)c5Cl)c(Cl)cc4c32)C[C@H]1CC#N [Example 286, 2-((2S,4S)-1-acryloyl-4-(6,8-dichloro-7-(2-chloro-3-methylphenyl)-4-(((S)-1-methylpyrrolidin-2-yl)methoxy)-1H-[1,2,3]triazolo[4,5-c]quinolin-1-yl)piperidin-2-yl)acetonitrile]	≤ 100	≤ 100
C=CC(=O)N1CC[C@H](n2nnc3c(OC[C@@H]4CCCN4C)nc4c(Cl)c(-c5cccc(Cl)c5C)c(Cl)cc4c32)C[C@H]1CC#N [Example 287, 2-((2S,4S)-1-acryloyl-4-(6,8-dichloro-7-(3-chloro-2-methylphenyl)-4-(((S)-1-methylpyrrolidin-2-yl)methoxy)-1H-[1,2,3]triazolo[4,5-c]quinolin-1-yl)piperidin-2-yl)acetonitrile]	≤ 100	≤ 100
C=CC(=O)N1CC[C@H](n2nnc3c(N4CC(N(C)C)C4)nc4c(Cl)c(-c5cccc(Cl)c5OC)c(Cl)cc4c32)C[C@H]1CC#N [Example 290, 2-((2S,4S)-1-acryloyl-4-(6,8-dichloro-7-(3-chloro-2-methoxyphenyl)-4-(3-(dimethylamino)azetidin-1-yl)-1H-[1,2,3]triazolo[4,5-c]quinolin-1-yl)piperidin-2-yl)acetonitrile]	≤ 100	≤ 100

Reference: US20210269434A1, “TRICYCLIC COMPOUNDS AS INHIBITORS OF KRAS” (Incyte Corporation, priority 2020, published 2021)
